Data on 4 molecules can be found in patent US20220370384A1, “COMBINATIONS OF MEK INHIBITORS WITH CAP-DEPENDENT ENDONUCLEASE INHIBITORS” (priority 2019, published 2022).

Molecules are shown by their SMILES.

Holding throughout (format): cell-based, influenza virus
For test [1], the system named is rgA/Giessen/6/09 (H1N1-WT).
Test [2] concerns rgA/Victoria/3/75 (H3N2-WT).
Test [3] concerns wild type (wt) strain of A/Mississippi/3/2001 (H1N1).

Turning to `O=C(O)c1ccc(F)c(F)c1Nc1ccc(I)cc1Cl` [ATR002, 2-(2-chloro-4-iodophenylamino)-N-3,4-difluoro benzoic acid], in test [1], the “activity lower (than BLXM)” value is given as 13%. Besides, the antiviral activity result in test [2] is recorded as “revealed its potency against both variants”. For `COC(=O)OCOc1c2n(ccc1=O)N([C@@H]1c3ccccc3SCc3c1ccc(F)c3F)[C@@H]1COCCN1C2=O` [BLXM], the “reduction of the viral titer” value in test [1] is reported as “approximate complete reduction of the viral titer”. On to `O=C(NOCC1CC1)c1ccc(F)c(F)c1Nc1ccc(I)cc1Cl` [CI-1040], for which, in test [3], the antiviral effectiveness result is “very effective”. On the same count and under the same terms, then `CCOC(=O)C1=C[C@@H](OC(CC)CC)[C@H](NC(C)=O)[C@@H](N)C1` [oseltamivir], with “very effective”.
